Converted amounts (≈) assume the structure as drawn.
Key:
[1] = tested on: human nasopharynx cancer (KB cells); assay: Inhibition of multiplication of human nasopharynx cancer (KB cells), MTT assay; format: cell-based; details: 72 hours
Protocol: (§1) The effect (IC50) of the compounds obtained by Examples in inhibiting multiplication of human nasopharynx cancer (KB cells) and human colon adenocarcinoma (colon 205 cells) Each well of a 96-well microtiter plate was inoculated with 0.1 ml of human nasopharynx cancer (KB cells) (1×10^4 /ml) or human colon adenocarcinoma (colon 205 cells) (2×10^4 /ml), which was then subjected to cultivation by allowing to stand at 37° C. for 24 hours in 5% CO2. To the culture was added a 10% MEM solution (manufactured by Nissui Seiyaku or RPMI-1640), and cultivation was continued at 37° C. for 72 hours in 5% CO2. Then, the culture solution was removed with a micro-pipette. […] Incubation was conducted at 37° C for 4 hours, to which was then added 0.1 ml of a 10% SDS (Wako Pure Chemical Industries, Ltd.), and the incubation was continued at 37° C. for 24 hours.

[2] = Acute toxicity in CDF-1 female mice; format: in vivo
Protocol: Acute toxicity of Compounds of Examples
CDF-1 female mice (5-week old: a group of consisting of 5 mice) were given once intraperitoneally 0.2 ml of a physiological saline solution of a compound of Example.

[3] = tested on: breast cancer cells MM46; assay: Action against breast cancer cells MM46 in C3H mice; format: in vivo, murine (C3H mice); details: for Life-span prolongation ratio (T/C %): 0.20 mg/mouse once a day for 4 consecutive days, only related to mice which died; for No. of survivors/No. of mice tested: 0.20 mg/mouse once a day for 4 days, on the 60th day
Protocol: Action of the compounds obtained in Examples against breast cancer cells MM46
C3H mice (a group consisting of 5 mice) were inoculated intraperitoneally with 1×10^4 MM46 cells per mouse, and given 0.20 mg/mouse of compounds of Examples dissolved in physiological saline once a day for 4 consecutive days starting from the second day after the inoculation. Shown in Table 3 are the life-span prolongation ratio against the control group without treatment and the number of surviving mice on the 60th day after starting the test.

[4] = tested on: human colon adenocarcinoma (colon 205 cells); assay: Inhibition of multiplication of human colon adenocarcinoma (colon 205 cells), MTT assay; format: cell-based; details: 72 hours
Protocol: as §1

[5] = tested on: Sarcoma 180 cells; assay: Antitumor effect against Sarcoma 180 cells in ICR mice; format: in vivo, murine (ICR mice); details: for Life-span prolongation ratio (T/C %): 0.33 mg/mouse i.p. 1 hour, 1 day and 2 days after inoculation, only related to mice which died; for Number of survivors/number of mice tested: 0.33 mg/mouse i.p. three times, on the 60th day
Protocol: Antitumor effect of compounds of Examples against Sarcoma 180 cells
ICR mice (a group consisting of 5 mice) were inoculated intraperitoneally with 1×10^5 Sarcoma 180 cells per mouse. Then, 0.33 mg/mouse of a compound dissolved in physiological saline was intraperitoneally administered three times, i.e. 1 hour, 1 day and 2 days after the inoculation. Shown in Table 4 are the life-span prolongation ratio against the control group without treatment and the number of surviving mice on the 60th day after the initiation of the test.

[6] = 50 mg/kg once i.p., after 7 days

In the case of `CCCCCCCCCCCCCCCCCCOCC(C[S+]([O-])CCOCC[n+]1ccccc1)Oc1ncccn1.[Cl-]` (centres unmarked) [Ex. 2, N-[2-[2-[3-octadecyloxy-2-(pyrimidin-2-yloxy)propylsulfinyl]ethoxy]ethyl]pyridinium chloride], the IC50 [1] is reported as 0.32 µg/mL, the “No. of dead mice/No. of mice tested” value ([2]; mouse, in vivo) is reported as 0/5 and the “Life-span prolongation ratio (T/C %)” value [3] is reported as 150%. For the same molecule, the “No. of survivors/No. of mice tested” value [3] was 2/5 and the IC50 [4] was 0.16 µg/mL.

In the case of `CCCCCCCCCCCCCCCCCCOCC(C[S+]([O-])CCOCC[n+]1cccc(CCCO)c1)Oc1ncccn1.[Cl-]` (centres unmarked) [Ex. 3, 3-(3-hydroxypropyl)-1-[2-[2-[3-octadecyloxy-2-(pyrimidin-2-yloxy)propylsulfinyl]ethoxy]-ethyl]pyridinium chloride], the IC50 [1] is reported as 0.16 µg/mL, the “Life-span prolongation ratio (T/C %)” value [5] is reported as 223% and the “Number of survivors/number of mice tested” value [5] is reported as 2/5. It also gave an IC50 [4] of 0.63 µg/mL.

With `CCCCCCCCCCCCCCCCCCOCC(C[S+]([O-])CCOCC[n+]1csc(CCO)c1C)Oc1ncccn1.[Cl-]` (centres unmarked) [Ex. 6, 5-(2-hydroxyethyl)-4-methyl-3-[2-[2-[3-octadecyloxy-2-(pyrimidin-2-yloxy)propylsulfinyl]ethoxy]-ethyl]thiazolium chloride] the IC50 [1] was 0.32 µg/mL, the “Life-span prolongation ratio (T/C %)” value [5] was 213% and the “Number of survivors/number of mice tested” value [5] was 1/5. The IC50 [4] was 0.63 µg/mL.

In the case of `CCCCCCCCCCCCCCCCCCOCC(CSCCOCC[n+]1ccn(CCCCCC(=O)[O-])c1)Oc1ncccn1` (centres unmarked) [Ex. 9, 6-[3-[2-[2-[3-octadecyloxy-2-(pyrimidin-2-yloxy)propylthio]ethoxy]ethyl]imidazolio-1-yl]hexanoate], the IC50 [1] is reported as 0.32 µg/mL (≈ 0.463 µM), the “No. of dead mice/No. of mice tested” value ([2]; mouse, in vivo) is reported as 0/5 and the IC50 [4] is reported as 0.63 µg/mL (≈ 0.912 µM).

In the case of `CCCCCCCCCCCCCCCCCCOCC(CSCCOCC[n+]1ccn(CCCC(=O)[O-])c1)Oc1ncccn1` (centres unmarked) [Ex. 11, 4-[3-[2-[2-[3-octadecyloxy-2-(pyrimidin-2-yloxy)propylthio]ethoxy]ethyl]imidazolio-1-yl]butyrate], the “No. of dead mice/No. of mice tested” value [2, 6] is reported as 0/5.

With `CCCCCCCCCCCCCCCCCCOCC(CSCCCOCCCn1ccnc1)Oc1ncccn1` (centres unmarked) [Ex. 12, N-[3-[3-[3-octadecyloxy-2-(pyrimidin-2-yloxy)propylthio]propoxy]propyl]imidazole] the “No. of dead mice/No. of mice tested” value [2, 6] was 0/5.

For `CCCCCCCCCCCCCCCCCCOCC(CS(=O)(=O)CCOCC[n+]1ccsc1)Oc1ncccn1` (centres unmarked) [Ex. 19, 2-[2-[3-octadecyloxy-2-(pyrimidin-2-yl-oxy)propylsulfonyl]ethoxy]ethylthiazolium chloride], the “Life-span prolongation ratio (T/C %)” value [3] was 154% and the “No. of survivors/No. of mice tested” value [3] was 2/5.

With `CCCCCCCCCCCCCCCCCCOCC(CS(=O)(=O)CCOCC[N+](C)(C)C)Oc1ncccn1.[Cl-]` (centres unmarked) [Ex. 21, N-[2-[2-[3-octadecyloxy-2-(pyrimidin-2-yloxy)propylsulfonyl]ethoxy]ethyl]-N,N,N-trimethylammonium chloride] the IC50 [1] was 0.32 µg/mL, the “Life-span prolongation ratio (T/C %)” value [3] was 144% and the “No. of survivors/No. of mice tested” value [3] was 2/5.

For `CCCCCCCCCCCCCCCCCCOCC(C[S+]([O-])CCOCC[N+](C)(C)C)Oc1ncccn1.[Cl-]` (centres unmarked) [Ex. 24, N-[2-[2-[3-octadecyloxy-2-(pyrimidin-2-yloxy)propylsulfinyl]ethoxy]ethyl]-N,N,N-trimethylammonium chloride], the IC50 [1] was under 0.16 µg/mL, the “No. of dead mice/No. of mice tested” value ([2]; mouse, in vivo) was 0/5 and the “Life-span prolongation ratio (T/C %)” value [5] was 195%. For the same molecule, the “Number of survivors/number of mice tested” value [5] was 1/5 and the IC50 [4] was 0.63 µg/mL.

With `O=C([O-])CCCn1cc[n+](CCOCCSCC(COCCCCCCCCCCCCC2CCCCC2)Oc2ncccn2)c1` (centres unmarked) [Ex. 28] the IC50 [1] was 1.25 µg/mL (≈ 1.89 µM) and the IC50 [4] was 5 µg/mL (≈ 7.56 µM).

`[Cl-].[O-][S+](CCOCC[n+]1ccccc1)CC(COCCCCCCCCCCCCC1CCCCC1)Oc1ncccn1` (centres unmarked) [Ex. 29, 1-[2-[2-[3-(12-cyclohexyldodecyloxy)-2-(pyrimidin-2yloxy)propylsulfinyl]ethoxy]ethyl]pyridinium chloride] gave an IC50 [1] of under 0.08 µg/mL and an IC50 [4] of 0.63 µg/mL.

For `CCCCCCCCCCCCCCCCCCOCC(C[S+]([O-])CCOCC[N+]1(C)CCCC1)Oc1ncccn1.[Cl-]` (centres unmarked) [Ex. 30, N-methyl-N-[2-[2-[3-octadecyloxy-2-(pyrimidin-2-yloxy)propylsulfinyl]ethoxy]ethyl]pyrrolidinium chloride], the IC50 [1] was 0.16 µg/mL and the IC50 [4] was 0.32 µg/mL.

With `CCCCCCCCCCCCCCCCCCOCC(CSCCOCC[n+]1ccccc1)Oc1ccncn1.[Cl-]` (centres unmarked) [Ex. 32, N-[2-[2-[3-octadecyloxy-2-(pyrimidin-4-yloxy)propylthio]ethoxy]ethyl]pyridinium chloride] the IC50 [1] was 0.63 µg/mL and the IC50 [4] was 1.25 µg/mL.

Molecule `CCCCCCCCCCCCCCCCCCOCC(CSCCOCC[n+]1ccn(CCCCCC(=O)[O-])c1)Oc1ccncn1` (centres unmarked) [Ex. 33, 6-[3-[2-[2-[3-octadecyloxy-2-(pyrimidin-4-yloxy)propylthio]ethoxy]ethyl]imidazolio-1-yl]hexanoate] has an IC50 [1] of 0.63 µg/mL (≈ 0.912 µM) and an IC50 [4] of 2.5 µg/mL (≈ 3.62 µM).

With `CCCCCCCCCCCCCCCCCCOCC(C[S+]([O-])CCOCC[n+]1ccccc1)Oc1ccncn1.[Cl-]` (centres unmarked) [Ex. 34, N-[2-[2-[3-octadecyloxy-2-(pyrimidin-4-yloxy)propylsulfinyl]ethoxy]ethyl]pyridinium chloride] the IC50 [1] was 0.32 µg/mL and the IC50 [4] was 0.63 µg/mL.

In the case of `CCCCCCCCCCCCCCCCCCOCC(C[S+]([O-])CCOCC[N+](C)(C)C)Oc1ccncn1.[Cl-]` (centres unmarked) [Ex. 35, N-[2-[2-[3-octadecyloxy-2-(pyrimidin-4-yloxy)propylsulfinyl]ethoxy]ethyl]-N,N,N-trimethylammonium chloride], the IC50 [1] is reported as 0.16 µg/mL and the IC50 [4] is reported as 0.63 µg/mL.

Molecule `CCCCCCCCCCCCCCCCCCOCC(CSCCOCC[n+]1cccc(CCCCC(=O)[O-])c1)Oc1ncccn1` (centres unmarked) [Ex. 37, 5-[1-[2-[2-[3-octadecyloxy-2-(pyrimidin-2-yloxy)propylthio]ethoxy]ethyl]pyridinio-3-yl]pentanoate] has an IC50 [1] of 0.32 µg/mL (≈ 0.465 µM) and an IC50 [4] of 5 µg/mL (≈ 7.27 µM).

Work on `CC(C)CCCC(C)CCCC(C)CCCC(C)CCOCC(CSCCOCC[n+]1ccn(CCCCCC(=O)[O-])c1)Oc1ncccn1` (centres unmarked) [Ex. 38, 6-[3-[2-[2-[2-(pyrimidin-2-yloxy)-3-(3,7, 11,15-tetramethylhexadecyloxy)propylthio]ethoxy]ethyl]-imidazolio-1-yl)hexanoate] yielded an IC50 [1] of 0.63 µg/mL (≈ 0.876 µM) and an IC50 [4] of 2.5 µg/mL (≈ 3.48 µM).

Work on `CC(C)CCCC(C)CCCC(C)CCCC(C)CCOCC(C[S+]([O-])CCOCC[n+]1ccccc1)Oc1ncccn1.[Cl-]` (centres unmarked) [Ex. 39, N-[2-[2-[2-(pyrimidin-2-yloxy)-3-(3,7,11, 15-tetramethylhexadecyloxy)propylsulfinyl]ethoxy]ethyl]-pyridinium chloride] yielded an IC50 [1] of 0.16 µg/mL and an IC50 [4] of 0.63 µg/mL.

Work on `CCCCCCCCCCCCCCCCCCOCC(CS(=O)(=O)CCCCCOCCCCC[n+]1ccccc1)Oc1ncccn1.[Cl-]` (centres unmarked) [Ex. 42, N-[5-[5-[3-octadecyloxy-2-(pyrimidin-2-yloxy)propylsulfonyl]pentyloxy]pentyl]pyridinium chloride] yielded an IC50 [1] of 0.32 µg/mL and an IC50 [4] of 1.25 µg/mL.

Work on `CCCCCCCCCCCCCCCCCCOCC(CSCCOCC[N+](C)(C)C)OC` (centres unmarked) [Ex. 43, N-[2-(2-methoxy-3-oxtadecyloxypropylthio)ethoxy]ethyl-N,N,N-trimethylammonium chloride] yielded an IC50 [1] of 0.32 µg/mL and an IC50 [4] of 1.25 µg/mL.

`CCCCCCCCCCCCCCCCCCOCC(C[S+]([O-])CCOCC[N+](C)(C)C)OC.[Cl-]` (centres unmarked) [Ex. 44, N-[2-[2-(2-methoxy-3-octadecyloxypropylsulfinyl)ethoxy]ethyl]-N,N,N-trimethylammonium chloride] gave an IC50 [1] of 0.16 µg/mL and an IC50 [4] of 0.32 µg/mL.

Work on `CCCCCCCCCCCCCCCCCCOCC(CSCCOCC[n+]1ccn(CCCC(=O)[O-])c1)OC` (centres unmarked) [Ex. 45, 4-[3-[2-[2(2-methoxy-3-octadecyloxypropylthio)ethoxy]ethyl]imidazolio-1-yl]butyrate] yielded an IC50 [1] of 0.63 µg/mL (≈ 1.05 µM) and an IC50 [4] of 2.5 µg/mL (≈ 4.17 µM).

For `CCCCCCCCCCCCCCCCCCOCC(CSCCOCC[n+]1cccc(CCCCC(=O)[O-])c1)OC` (centres unmarked) [Ex. 46, 5-[1-[2-[2-(2-methoxy-3-octadecyloxypropylthio)ethoxy]ethyl]pyridinio-3-yl]-pentanoate], the IC50 [1] was 0.32 µg/mL (≈ 0.513 µM) and the IC50 [4] was 2.5 µg/mL (≈ 4.01 µM).

`CCCCCCCCCCCCCCCCCCOCC(CSCCOCCOCC[N+](C)(C)C)Oc1ncccn1` (centres unmarked) [Ex. 47, N-[2-[2-[2-[3-octadecyloxy-2-(pyrimidin-2-yloxy)propylthio]ethoxy]ethoxy]ethyl]-N,N,N,trimethylammonium chloride] gave an IC50 [1] of 0.63 µg/mL and an IC50 [4] of 1.25 µg/mL.

In the case of `CCCCCCCCCCCCCCCCCCOCC(C[S+]([O-])CCOCCOCC[N+](C)(C)C)Oc1ncccn1.[Cl-]` (centres unmarked) [Ex. 48, N-[2-[2-[3-octadecyloxy-2-(pyrimidin-2-yloxy)propylsulfinyl]ethoxy]ethoxy]ethyl-N,N,N-trimethylammonium chloride], the IC50 [1] is reported as 0.16 µg/mL and the IC50 [4] is reported as 0.63 µg/mL.
